Data on two compounds can be found in patent US20100112174A1, “LOW CALORIE SWEETENER COMPOSITIONS” (CARGILL, INCORPORATED, priority 2006, published 2010).

For one data set, the system named is human subjects. Kind of data set: Gastrointestinal tolerance study of iced cupcakes (Test Protocol 1; randomized, double-blind, crossover). Type of data set: in vivo. Conditions: after 24 hours; compared to SWEETENER 1. The text has this:
In many embodiments, the sweetener compositions of the invention have improved gastrointestinal tolerance in humans. For example, the sweetener compositions of the invention have improved gastrointestinal tolerance as compared to maltitol. Gastrointestinal tolerance can be measured, for example, using a randomized, double blind, crossover, repeated measure design protocol, such described in Test Protocol 1 in the Example section of the application. In a representative test, a test food comprising a sweetener to be tested is consumed by human subjects, and the subjects are required to complete a gastrointestinal survey at various intervals, prior to and after, consuming the test food. For example, the human subject may complete the survey at 0 hours (i.e., just prior to consuming the test food), 2 hours, 6 hours, 12 hours, and 24 hours after consuming the test food. The food is then rated at the various time periods for gastrointestinal tolerance as evidenced by gastrointestinal effects such as gastrointestinal rumbling, abdominal cramping, gas/bloating, excessive flatulence, loose stools, and diarrhea. […]
The study used a randomized, double-blind, crossover, repeated measure design. […] Diarrhea was recorded as a yes/no response. […]

For data set [1] the following is noted: in vivo; cited from earlier work.

Structures are written as SMILES.

For the compound `OC[C@@H](O)[C@@H](O[C@H]1O[C@H](CO)[C@@H](O)[C@H](O)[C@H]1O)[C@H](O)[C@@H](O)CO` [COMP. SWEETENER A, Maltitol], the abdominal cramping result in the data set on human subjects is “Significantly milder”.
Turning to `OC[C@@H](O)[C@@H](O)CO` [Erythritol], the “fraction absorbed in the small intestine and excreted unchanged in the urine” value in data set [1] was “about 90%”.
